Laboratory results reported in US9480703B2, “Method and composition of glycosaminoglycans in sickle cell and vascular disorders” (priority 2013, dated 2016).

What was measured:
ICAM-1 = ICAM-1 levels in plasma of transgenic sickle cell mice; assay type: in vivo; conditions: daily subcutaneous treatment for 7 days, LMWH 5 mg/kg, SNACH (NACH) 20 mg/kg, PSI-14 10 mg/kg
Text: (§1) Transgenic SCD model mice (stock #013071) of aged-matched female were obtained from The Jackson Laboratory (Bar Harbor, Me.) in addition to wild mice as controls. Genetically, transgenic mice were designed with the human hemoglobin gamma (^Ay) gene and the human sickle hemoglobin beta (β^S) gene replacing the endogenous mouse major and minor β-globin.
(§2) Each category of mice (wild or SCD) was divided into three groups. Basal blood samples were taken by retro orbital venipuncture under anesthesia with citrated micro-hematocrit tubes, before the treatment administration. The three groups in each category were treated subcutaneously with LMWH (5 mg/kg), SNACH (20 mg/kg), and PSI (10 mg/kg). Compounds were administered daily for 7 days, and follow up blood samples were drawn daily after 1 hour of treatment administration. Immediately after collection, blood was centrifuged at 800×g for 5 minutes and plasma was collected and stored at −80° C.
Levels of adhesion biomarker ICAM-1 were measured in mice plasma using the Bio-Plex 200 systems. Assay kit (171-304080M) was obtained from Bio-Rad (Hercules, Calif.) and the experiment was conducted following the provided instructions. The assay principle is based on the concept of sandwich ELISA where magnetic beads are covalently bound to the capture antibodies that react to the targeted biomarker. […]

NFkB = test: NF-KB luciferase reporter assay; assay type: cell-based; conditions: NF-KB Luciferase Reporter Hela Stable cells, 1 μL, 10 μL and 100 μL, two hours
Method: The Luciferase Assay System was purchased from Promega (Madison, Wis., USA). NF-KB Luciferase Reporter Hela Stable cells were seeded at 10^4 cells/well in 96-well plate and incubated for 24 hours. Then, growth media was removed. Next, SNACH, tinzaparin or Poly-Arginine NPs were added at concentrations of 1 μL, 10 μL and 100 μL in triplicate and incubated at 36° C. for two hours. After two hours, cells were washed with PBS. Lysis buffer was prepared following a generic protocol. 0.5 mL of lysis buffer was mixed with 2 mL of PBS. Next, the lysis buffer's solution was added to each well. Afterward, the 96-well plate was rocked several times using a shaker. Cells and liquid were collected for centrifugation at 1200×g for 5 minutes at 4° C. The supernatant was removed and stored at −80° C. One week later, the 96-well plate was placed in the luminometer containing 20 μL of lysis buffer and 100 μL of luciferase assay reagent/well. The light was measured for a period of 10 seconds with a delay time of 2 seconds.

P-selectin = P-selectin levels in plasma of transgenic sickle cell mice; assay type: in vivo; conditions: daily subcutaneous treatment for 7 days, LMWH 5 mg/kg, SNACH (NACH) 20 mg/kg
Text: as §1, §2

[1] = Mortality of treated SCD mice; assay type: in vivo; conditions: LMWH 5 mg/kg daily, % of the group's mice
Method: as §2

aPTT in dosed mice = assay type: in vivo; conditions: subcutaneous, SNACH 0.1-40 mg/Kg, tinzaparin 0.1-5.0 mg/Kg
[2] = system: platelet/fibrin clot dynamics; test: Thrombelastography (TEG), cup with or without HUVEC coating; conditions: re-calcified citrated whole blood
Method: Thrombelastography (TEG) was performed in either citrated whole blood after re-calcification. The blood samples were mixed with 3.8% tri-sodium citrate solution (one part citrate solution to 9 parts blood) as anticoagulant. The citrated whole blood was re-calcified by adding 0.4 ml isotonic calcium chloride solution. An aliquot of 0.36 ml of the re-calcified whole blood was transferred to the pre-warmed cup (Coated with monolayer of HUVEC or not) of the thrombelastograph. The following measurements were the standard variables of TEG: (i) Reaction time (R): the time from sample placement in the cup until onset of clotting (defined as amplitude of 1 mm). This represents the rate of initial fibrin formation; (ii) Maximum amplitude (MA): greatest amplitude on the TEG trace, wherein MA represents the absolute strength of the fibrin clot and is a direct function of the maximum dynamic strength of fibrin and platelets.

Bleeding time in mice = assay type: in vivo
[3] = system: endogenous pathway of coagulation; test: aPTT in citrated plasma; conditions: SNACH 1-10 uM
Method: To 0.1 ml of citrated plasma 0.1 ml of human placenta lipid is added and the mixture is incubated for 2 min at 37° C. The coagulation process is initiated by the addition of 0.1 ml 25 mM calcium chloride and the time to clot formation is determined. The aPTT measures effects on the endogenous pathway of coagulation.

[4] = system: adhesion of sickle RBCs to endothelial cells (HUVECs); test: Static adhesion assay of PKH67-labeled sickle RBCs on TNF-α-treated HUVECs; assay type: cell-based, human; conditions: HUVECs treated with TNF-α 10 ng/ml; PSI 10 μg/ml, LMWH & SNACH 40 μg/ml
Method: Using gelatin-coated culture flasks, HUVEC were cultured in EGM complete media supplemented with 2 ml bovine brain extract (BBE), and passaged when 80% confluent using trypsin/EDTA solution according to the manufacturers' instructions. Cells from passages 2 to 6 were used for adhesion assay experiments. Cells were sub-cultured in a 96-well plate pre-coated with collagen with a number of 20,000 cells per well, and were left for 24 hours at 37° C. in a CO2 (5%) incubator to form a confluent monolayer.
Normal and sickle blood samples were collected in EDTA tubes from the antecubital vein of healthy volunteers and homozygous sickle cell patients, respectively. […] Packed RBCs were washed once with PBS, and counted using a CBC analyzer. […]
After HUVECs formed a confluent monolayer in the plate's wells, the experiment was designed to include five groups in […]: medium only (negative control), TNF-α only (positive control), or TNF-α with the treatment compounds: LMWH, SNACH, and PSI. […] Non-adherent RBCs were removed with PBS wash, and then 150 μl of complete medium were added for plate reading.
In order to quantitate endothelial-adherent RBCs by the fluorescence plate reader, serial two-fold dilutions of PKH67-labeled RBC samples were prepared from 2×10^6 to 0.16×10^6 RBCs/well. […] fluorescence was detectable with as few as 10^4 RBCs. […]

factor Xa = test: Anti-Xa in dosed mice; assay type: in vivo; conditions: subcutaneous, SNACH 0.1-40 mg/Kg, tinzaparin 0.1-5.0 mg/Kg

tinzaparin [LMWH]
ICAM-1 levels in plasma at multiple time points (ICAM-1): showed a decrease only on the first and third days of treatment | NFkB activation (NFkB): significant concentration-dependent suppression of NFkB activation | decrease of P-selectin levels in plasma (P-selectin): ~15% | mortality rate (bleeding complications) [1]: 75% | aPTT (aPTT in dosed mice): increase in aPTT | platelet/fibrin clot dynamics (TEG) ([2]; absence of endothelial cell coating of cup): suppression of platelet/fibrin clot dynamics | platelet/fibrin clot dynamics (TEG) ([2]; presence of endothelial cell (HUVEC) coating of cup): suppression of platelet/fibrin clot dynamics | bleeding time (Bleeding time in mice; subcutaneous, SNACH 0.1-40 mg/Kg, tinzaparin 0.1-5.0 mg/Kg): maximal increase in bleeding time | finding at site of injection (Bleeding time in mice; tinzaparin 0.1-5.0 mg/Kg subcutaneously): browsing at site of injection | effect on aPTT [3]: concentration dependent increase in aPTT | adhesion of sickle RBCs to the endothelial layer compared to TNF-α only (positive control) [4]: did not show a decrease in the adhesion that could be considered statistically significant | anti-Xa (factor Xa): inhibition of factor Xa
